Reference: patent US5856336A, “Quinoline type mevalonolactones” (Nissan Chemical Industries Ltd., priority 1987, dated 1999)
Structures can show the parent of a compound that is named as a salt.

Tested on: cholesterol biosynthesis from acetate (liver microsome and sup fraction)
Assay: Test A: Inhibition of cholesterol biosynthesis from acetate in vitro
Type: biochemical, male Wistar rat
Settings: for Relative activities by Test A: relative to CS-514 being evaluated to be 1
Protocol: Test A: Inhibition of cholesterol biosynthesis from acetate in vitro
Enzyme solution was prepared from liver of male Wistar rat billialy cannulated and discharged bile for over 24 hours. Liver was cut out at mid-dark and microsome and supernatant fraction which was precipitable with 40-80% of saturation of ammonium sulfate (sup fraction) were prepared from liver homogenate according to the modified method of Knauss et. al.; Kuroda, M., et. al., Biochim. Biophys. Acta, 489, 119 (1977). For assay of cholesterol biosynthesis, microsome (0.1 mg protein) and sup fraction (1.0 mg protein) were incubated for 2 hours at 37° C. in 200 μl of the reaction mixture containing ATP; 1 mM, Glutathione; 6 mM, Glucose-1-phosphate; 10 mM, NAD; 0.25 mM, NADP; 0.25 mM, CoA; 0.04 mM and 0.2 mM [2-^14 C]sodium acetate (0.2 μCi) with 4 μl of test compound solution dissolved in water or dimethyl sulfoxide. To stop reaction and saponify, 1 ml of 15% EtOH-KOH was added to the reactions and heated at 75° C. for 1 hour. […] Inhibitory activity of compounds was indicated with IC50.

SMILES | Relative activities by Test A | IC50 (Test A, rat liver microsome + sup fraction, [2-14C]sodium acetate, 2 hours at 37° C., read-out: I50 (inhibitory activities by Test A)) [nM]
CCOC(=O)CC(O)CC(O)/C=C/c1c(CC)nc2ccccc2c1-c1ccc(F)cc1 (stereo not drawn) [I-117] | 0.37 | 
CC(C)c1nc2c(Cl)cc(Cl)cc2c(-c2ccc(F)cc2)c1/C=C/C(O)CC(O)CC(=O)O (stereo not drawn) [I-522] | 0.76 | 
CC(C)c1nc2ccccc2c(-c2ccc(F)cc2)c1/C=C/C(O)CC(O)CC(=O)O (stereo not drawn) [I-51, Sodium salt of (E)-3,5-dihydroxy-7-[4'-(4"-fluorophenyl)-2'-(1"-methylethyl)-quinolin-3 '-yl]-hept-6-enoic acid] |  | 10
